Results as given in ChEMBL document CHEMBL1125892 (J Med Chem, 1991).

What was measured:
[1] = biological target: T1, 5-hydroxytryptamine receptor 1A (Rattus norvegicus, UniProt P19327); experiment: Displacement of [3H]8-OH-DPAT from rat hippocampal 5-hydroxytryptamine 1A receptor; IA-Inactive; assay type: tissue-based, Hippocampus
T1 sequence (P19327 whole entry): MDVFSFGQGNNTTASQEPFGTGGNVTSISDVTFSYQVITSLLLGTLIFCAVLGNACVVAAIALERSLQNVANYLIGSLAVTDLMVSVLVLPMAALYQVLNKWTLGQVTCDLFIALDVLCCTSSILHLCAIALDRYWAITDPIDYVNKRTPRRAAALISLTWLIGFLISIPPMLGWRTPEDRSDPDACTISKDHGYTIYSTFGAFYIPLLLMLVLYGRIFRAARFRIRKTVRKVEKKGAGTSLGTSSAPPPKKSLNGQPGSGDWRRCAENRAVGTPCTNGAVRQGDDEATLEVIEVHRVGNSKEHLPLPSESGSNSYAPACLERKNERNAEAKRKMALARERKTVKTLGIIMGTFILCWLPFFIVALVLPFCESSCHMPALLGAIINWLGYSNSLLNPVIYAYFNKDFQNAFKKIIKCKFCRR

[2] = biological target: T2, D(2) dopamine receptor (Rattus norvegicus, UniProt P61169)
T2 sequence (P61169 whole entry): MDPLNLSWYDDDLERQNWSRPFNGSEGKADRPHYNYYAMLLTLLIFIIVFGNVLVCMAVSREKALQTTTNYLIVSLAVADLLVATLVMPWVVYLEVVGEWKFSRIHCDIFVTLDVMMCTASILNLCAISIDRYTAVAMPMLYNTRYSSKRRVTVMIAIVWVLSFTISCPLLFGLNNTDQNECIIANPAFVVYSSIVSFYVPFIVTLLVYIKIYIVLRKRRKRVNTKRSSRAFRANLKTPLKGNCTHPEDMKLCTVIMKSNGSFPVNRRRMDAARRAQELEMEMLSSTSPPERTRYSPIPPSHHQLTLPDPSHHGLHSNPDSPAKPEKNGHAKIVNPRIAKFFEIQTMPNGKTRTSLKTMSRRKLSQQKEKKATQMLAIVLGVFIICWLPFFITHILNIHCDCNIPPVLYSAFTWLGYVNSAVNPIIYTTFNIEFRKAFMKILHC

[3] = biological target: T3, 5-hydroxytryptamine receptor 2A (Rattus norvegicus, UniProt P14842); experiment: Binding affinity against rat 5-hydroxytryptamine 2 receptor in rat cerebral cortex tissue using [3H]spiperone as radioligand; IA-Inactive; assay type: tissue-based
T3 sequence (P14842 whole entry): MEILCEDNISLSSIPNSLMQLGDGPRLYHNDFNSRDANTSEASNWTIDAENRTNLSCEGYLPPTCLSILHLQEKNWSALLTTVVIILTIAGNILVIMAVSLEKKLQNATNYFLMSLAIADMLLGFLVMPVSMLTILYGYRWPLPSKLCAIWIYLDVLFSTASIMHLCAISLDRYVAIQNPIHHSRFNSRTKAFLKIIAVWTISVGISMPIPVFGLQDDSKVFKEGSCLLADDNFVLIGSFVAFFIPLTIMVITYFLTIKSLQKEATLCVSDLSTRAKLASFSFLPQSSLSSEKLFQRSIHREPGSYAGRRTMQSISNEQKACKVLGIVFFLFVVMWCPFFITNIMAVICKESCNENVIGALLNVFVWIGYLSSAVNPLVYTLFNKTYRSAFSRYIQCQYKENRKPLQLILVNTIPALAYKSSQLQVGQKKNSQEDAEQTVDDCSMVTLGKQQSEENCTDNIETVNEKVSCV

[4] = test system: Rattus norvegicus; experiment: In vivo inhibition of conditional avoidance response in rats(CAR), after po administration; assay type: functional
[5] = biological target: T4, Adrenergic receptor alpha-1 (Rattus norvegicus, UniProt P15823+P23944+P43140); experiment: Binding affinity against alpha-1 adrenergic receptor in rat cerebral cortex tissue using [3H]WB-4101 as radioligand; assay type: tissue-based
T4 sequence (P15823 whole entry): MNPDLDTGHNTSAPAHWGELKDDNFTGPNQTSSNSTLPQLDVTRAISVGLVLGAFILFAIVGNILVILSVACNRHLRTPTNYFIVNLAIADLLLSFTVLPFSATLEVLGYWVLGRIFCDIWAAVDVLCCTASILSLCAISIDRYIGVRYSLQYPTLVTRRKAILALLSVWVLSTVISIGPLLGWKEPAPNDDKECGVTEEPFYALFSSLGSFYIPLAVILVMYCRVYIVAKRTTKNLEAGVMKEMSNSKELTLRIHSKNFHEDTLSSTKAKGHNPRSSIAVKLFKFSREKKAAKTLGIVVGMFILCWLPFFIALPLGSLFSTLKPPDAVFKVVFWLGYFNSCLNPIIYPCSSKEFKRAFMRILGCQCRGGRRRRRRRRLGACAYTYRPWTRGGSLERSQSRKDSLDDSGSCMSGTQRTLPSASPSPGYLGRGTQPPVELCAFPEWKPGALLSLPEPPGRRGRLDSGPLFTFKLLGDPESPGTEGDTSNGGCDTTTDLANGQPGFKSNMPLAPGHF
T4 sequence (P23944 whole entry): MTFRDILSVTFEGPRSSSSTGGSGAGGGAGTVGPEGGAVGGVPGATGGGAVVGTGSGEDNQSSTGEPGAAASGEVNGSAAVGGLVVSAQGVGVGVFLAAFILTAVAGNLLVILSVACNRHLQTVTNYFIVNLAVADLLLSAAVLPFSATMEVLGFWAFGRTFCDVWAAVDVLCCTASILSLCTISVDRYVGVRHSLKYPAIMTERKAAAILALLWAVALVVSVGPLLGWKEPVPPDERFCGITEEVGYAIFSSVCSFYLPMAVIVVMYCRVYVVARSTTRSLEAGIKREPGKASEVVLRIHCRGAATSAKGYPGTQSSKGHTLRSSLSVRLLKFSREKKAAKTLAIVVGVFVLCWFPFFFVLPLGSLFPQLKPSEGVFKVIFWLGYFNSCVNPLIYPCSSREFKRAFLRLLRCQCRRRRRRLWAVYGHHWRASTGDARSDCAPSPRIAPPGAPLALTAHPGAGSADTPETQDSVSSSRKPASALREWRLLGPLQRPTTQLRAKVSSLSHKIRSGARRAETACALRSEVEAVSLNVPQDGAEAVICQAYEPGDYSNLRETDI
T4 sequence (P43140 whole entry): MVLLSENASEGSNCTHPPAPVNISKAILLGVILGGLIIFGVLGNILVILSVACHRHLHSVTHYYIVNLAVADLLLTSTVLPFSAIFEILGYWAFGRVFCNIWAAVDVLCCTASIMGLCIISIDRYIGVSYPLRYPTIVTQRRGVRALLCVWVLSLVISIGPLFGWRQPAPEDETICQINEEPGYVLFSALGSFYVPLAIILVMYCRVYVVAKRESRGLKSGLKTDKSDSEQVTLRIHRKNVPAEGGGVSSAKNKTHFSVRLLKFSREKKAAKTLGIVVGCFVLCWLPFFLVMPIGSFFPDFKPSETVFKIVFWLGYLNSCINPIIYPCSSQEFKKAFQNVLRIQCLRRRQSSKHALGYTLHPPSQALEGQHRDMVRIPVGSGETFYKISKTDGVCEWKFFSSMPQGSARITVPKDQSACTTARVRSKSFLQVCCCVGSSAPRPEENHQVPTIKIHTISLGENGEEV

[6] = biological target: T1, 5-hydroxytryptamine receptor 1A; experiment: Binding affinity against 5-hydroxytryptamine 1A receptor using in rat hippocampal tissue using [3H]8-OH-DPAT as radioligand; assay type: tissue-based, Hippocampus
[7] = organism: Rattus norvegicus; experiment: Selectivity ratio of IC50 for dopamine receptor and Alpha-1 receptor
[8] = biological target: T2, D(2) dopamine receptor; experiment: Binding affinity against dopamine receptor D2 in rat corpus striatal tissue using [3H]spiperone as radioligand; assay type: tissue-based, Striatum
[9] = test system: Rattus norvegicus; experiment: In vivo inhibition of conditional avoidance response in rats(CAR), after im administration; assay type: functional
[10] = test system: Rattus norvegicus; experiment: In vivo inhibition of conditional avoidance response in rats(CAR), after sc administration; assay type: functional
[11] = biological target: T3, 5-hydroxytryptamine receptor 2A; experiment: Binding affinity against rat 5-hydroxytryptamine 2 receptor in rat cerebral cortex tissue using [3H]spiperone as radioligand; assay type: tissue-based
[12] = biological target: T2, D(2) dopamine receptor; experiment: Binding affinity against Dopamine receptor D2 receptor of rat corpus striatal tissue with [3H]spiperone
[13] = biological target: T1, 5-hydroxytryptamine receptor 1A; experiment: Binding affinity against 5-hydroxytryptamine 1A receptor of rat hippocampal tissue with [3H]5-HT; assay type: tissue-based, Hippocampus

SMILES | IC50 [1] | IC50 [2] | IC50 [3] | IC50 [6] [nM] | also measured
[O-][s+]1nc(N2CCNCC2)c2ccccc21 (stereo not drawn) [BITP-SULFONE] | Not Active | Not Active | Not Active | – | ED50 [4]: > 100 mg/kg
O=C1CC2(CCC(O)C2)CC(=O)N1CCCCN1CCN(c2nsc3ccccc23)CC1 (stereo not drawn) | – | – | – | 3.75 | IC50 [5]: 0.876 nM; Ratio [7]: 60; IC50 [8]: 52.5 nM
O=C1CC2(CCCC2)CC(=O)N1CCCCN1CCN(C2=NS(=O)(=O)c3ccccc32)CC1 | Not Active | Not Active | Not Active | – | ED50 [9]: > 10 mg/kg
c1ccc2c(N3CCNCC3)nsc2c1 [BENZISOTHIAZOLE-3-YL-PIPERAZINE] | – | Not Active | – | 190 | ED50 [4]: > 100 mg/kg
O=C1CC2(CCCC2)C(O)C(=O)N1CCCCN1CCN(c2n[s+]([O-])c3ccccc23)CC1 (stereo not drawn) | Not Active | Not Active | Not Active | – | –
O=C1CCC2(C1)CC(=O)N(CCCCN1CCN(c3nsc4ccccc34)CC1)C(=O)C2 | – | – | – | 2.99 | IC50 [5]: 1.3 nM; Ratio [7]: 52; ED50 [10]: > 60.3 mg/kg; IC50 [8]: 68.3 nM
O=C1CC2(CCCC2)CC(=O)N1CCC(O)CN1CCN(c2n[s+]([O-])c3ccccc23)CC1 (stereo not drawn) | Not Active | Not Active | Not Active | – | ED50 [4]: > 50 mg/kg
O=S1(=O)N=C(N2CCNCC2)c2ccccc21 [BENZISOTHIAZOLE-3YL-PIPERAZINE SULFOXIDE] | Not Active | Not Active | Not Active | – | ED50 [4]: > 100 mg/kg
O=C1CC2(CCCC2)CC(=O)N1CCC(O)CN1CCN(c2nsc3ccccc23)CC1 (stereo not drawn) | – | – | – | 24.9 | IC50 [5]: 8.3 nM; Ratio [7]: 13; IC50 [8]: 111 nM
O=C1CC2(CCCC2)C(O)C(=O)N1CCCCN1CCN(c2nsc3ccccc23)CC1 (stereo not drawn) | – | – | – | 5.06 | ED50 [9]: 1 mg/kg
O=C1CC2(CCC(O)C2)CC(=O)N1CCCCN1CCN(C2=NS(=O)(=O)c3ccccc32)CC1 (stereo not drawn) | Not Active | Not Active | Not Active | – | ED50 [10]: > 100 mg/kg
O=C1CC2(CCCC2)CC(=O)N1CCCCN1CCN(c2n[s+]([O-])c3ccccc23)CC1 (stereo not drawn) | Not Active | Not Active | Not Active | – | ED50 [4]: 11 mg/kg
COc1cccc2c(N3CCNCC3)nsc12 | Not Active | Not Active | Not Active | – | –
O=C1CC2(CCCC2)C(C(=O)NCCCCN2CCN(c3nsc4ccccc34)CC2)O1 (stereo not drawn) | – | – | – | 98.7 | IC50 [11]: 4.5 nM; IC50 [5]: 2.5 nM; Ratio [7]: 60; IC50 [8]: 150 nM
O=C1CC2(CCC(O)C2)CC(=O)N1CCCCN1CCN(c2n[s+]([O-])c3ccccc23)CC1 (stereo not drawn) | Not Active | Not Active | Not Active | – | ED50 [10]: > 100 mg/kg
COc1ccc2c(N3CCNCC3)nsc2c1 | Not Active | Not Active | Not Active | – | –
O=C1CC2(CCC(O)C2)CC(=O)N1CCC(O)CN1CCN(c2nsc3ccccc23)CC1 (stereo not drawn) | – | – | – | 14.2 | IC50 [5]: 7.15 nM; Ratio [7]: 69; IC50 [8]: 491 nM
O=C1CC2(CCCC2)CC(=O)N1CCCCN1CCN(c2nsc3ccccc23)CC1 [TIOSPIRONE] | – | – | – | – | IC50 [12]: 8.4 nM; ED50 [9]: 0.35 mg/kg
COc1ccc2snc(N3CCNCC3)c2c1 | – | Not Active | Not Active | – | IC50 [13]: 20.9 nM
COc1cccc2snc(N3CCNCC3)c12 | – | Not Active | Not Active | – | IC50 [13]: 121 nM
O=C1CCC2(C1)CC(=O)N(CCCCN1CCN(c3n[s+]([O-])c4ccccc34)CC1)C(=O)C2 (stereo not drawn) | Not Active | Not Active | Not Active | – | ED50 [10]: > 100 mg/kg
O=C1CN(C2=NS(=O)(=O)c3ccccc32)CCN1 | Not Active | Not Active | Not Active | – | ED50 [10]: > 50 mg/kg
O=C1CC2(CCCC2)C(O)C(=O)N1CCCCN1CCN(C2=NS(=O)(=O)c3ccccc32)CC1 (stereo not drawn) | Not Active | Not Active | Not Active | – | –
